Source: patent US20200283482A1, “BICYCLIC PEPTIDE LIGAND PRR-A CONJUGATES AND USES THEREOF” (BicycleRD Limited, priority 2017, published 2020)
Starred links: 1 amine or outer side, 2 acyl side, 3 side chain; linkers in the order of their positions; H or OH if unused. Positions of bridges follow the written chain, without caps; N, C: chain ends. Non-standard residues stand in square brackets, D forms with d. Residues, ends and D or L forms follow the SMILES beside them. *: point of attachment. X1 = CCOCc1nc2c(NC(=O)OCCSSC(C)CCC(=O)*)nc3ccccc3c2n1CC(C)(C)O; 1Nal = N[C@@H](Cc1cccc2ccccc12)C(=O)O; TBMB = c1c(C[*:1])cc(C[*:3])cc1C[*:2]; Tle = CC(C)(C)[C@H](N)C(=O)O; βAla = NCCC(=O)O; Sar = CNCC(=O)O

Assays:
human TLR8 = target: T1, human TLR8 (Homo sapiens, UniProt Q9NR97); test: Human TLR8 receptor activation, HEK293 reporter cell line; format: cell-based; conditions: HEK293 reporter cells, 16 hours
T1 construct: host or cells: HEK293 reporter cell line
T1 sequence (Q9NR97 27-1041): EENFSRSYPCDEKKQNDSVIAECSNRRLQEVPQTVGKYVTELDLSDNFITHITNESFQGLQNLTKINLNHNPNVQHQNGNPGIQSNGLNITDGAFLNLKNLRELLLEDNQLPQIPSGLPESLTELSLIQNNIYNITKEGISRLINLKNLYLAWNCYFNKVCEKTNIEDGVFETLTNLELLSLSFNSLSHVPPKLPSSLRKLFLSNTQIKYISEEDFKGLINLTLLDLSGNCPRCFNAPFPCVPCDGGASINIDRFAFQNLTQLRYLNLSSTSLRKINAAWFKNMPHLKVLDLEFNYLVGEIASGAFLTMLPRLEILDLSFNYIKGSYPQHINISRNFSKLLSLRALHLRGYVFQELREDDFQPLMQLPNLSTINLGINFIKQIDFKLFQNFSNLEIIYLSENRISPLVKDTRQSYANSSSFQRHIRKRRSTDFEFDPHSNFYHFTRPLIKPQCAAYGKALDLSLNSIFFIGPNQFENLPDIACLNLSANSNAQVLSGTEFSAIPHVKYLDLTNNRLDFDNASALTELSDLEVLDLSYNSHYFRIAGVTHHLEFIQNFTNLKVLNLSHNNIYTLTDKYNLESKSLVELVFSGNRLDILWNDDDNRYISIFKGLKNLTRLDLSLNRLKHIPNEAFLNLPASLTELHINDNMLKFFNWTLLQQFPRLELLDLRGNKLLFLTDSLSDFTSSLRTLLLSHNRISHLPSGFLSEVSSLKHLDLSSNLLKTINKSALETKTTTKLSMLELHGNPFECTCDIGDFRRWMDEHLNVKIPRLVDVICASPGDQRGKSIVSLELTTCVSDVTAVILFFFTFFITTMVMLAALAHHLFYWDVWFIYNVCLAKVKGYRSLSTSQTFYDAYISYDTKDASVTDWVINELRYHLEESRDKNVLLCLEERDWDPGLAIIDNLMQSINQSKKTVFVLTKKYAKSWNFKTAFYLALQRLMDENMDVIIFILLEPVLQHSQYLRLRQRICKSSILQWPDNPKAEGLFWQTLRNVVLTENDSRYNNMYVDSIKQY
Description: (§1) Compounds were tested for their activity to activate human TLR7 and TLR8 receptors using HEK293 reporter cell lines engineered to express respective receptors in accordance to manufacturer's instructions (InvivoGen). […] Incubation was for 16 hours at 37° C. and […]. Absorption at 655 nm was read on […]. Data was fitted using PRISM.

Plasma stability, mouse = format: in vitro ADME; conditions: pH 7.4; mouse plasma, 2 μM, 37° C.; read-out: T1/2 (mouse)
human TLR7 = target: T2, human TLR7 (Homo sapiens, UniProt Q9NYK1); test: Human TLR7 receptor activation, HEK293 reporter cell line; format: cell-based; conditions: HEK293 reporter cells, 16 hours
T2 construct: host or cells: HEK293 reporter cell line
T2 sequence (Q9NYK1 27-1049): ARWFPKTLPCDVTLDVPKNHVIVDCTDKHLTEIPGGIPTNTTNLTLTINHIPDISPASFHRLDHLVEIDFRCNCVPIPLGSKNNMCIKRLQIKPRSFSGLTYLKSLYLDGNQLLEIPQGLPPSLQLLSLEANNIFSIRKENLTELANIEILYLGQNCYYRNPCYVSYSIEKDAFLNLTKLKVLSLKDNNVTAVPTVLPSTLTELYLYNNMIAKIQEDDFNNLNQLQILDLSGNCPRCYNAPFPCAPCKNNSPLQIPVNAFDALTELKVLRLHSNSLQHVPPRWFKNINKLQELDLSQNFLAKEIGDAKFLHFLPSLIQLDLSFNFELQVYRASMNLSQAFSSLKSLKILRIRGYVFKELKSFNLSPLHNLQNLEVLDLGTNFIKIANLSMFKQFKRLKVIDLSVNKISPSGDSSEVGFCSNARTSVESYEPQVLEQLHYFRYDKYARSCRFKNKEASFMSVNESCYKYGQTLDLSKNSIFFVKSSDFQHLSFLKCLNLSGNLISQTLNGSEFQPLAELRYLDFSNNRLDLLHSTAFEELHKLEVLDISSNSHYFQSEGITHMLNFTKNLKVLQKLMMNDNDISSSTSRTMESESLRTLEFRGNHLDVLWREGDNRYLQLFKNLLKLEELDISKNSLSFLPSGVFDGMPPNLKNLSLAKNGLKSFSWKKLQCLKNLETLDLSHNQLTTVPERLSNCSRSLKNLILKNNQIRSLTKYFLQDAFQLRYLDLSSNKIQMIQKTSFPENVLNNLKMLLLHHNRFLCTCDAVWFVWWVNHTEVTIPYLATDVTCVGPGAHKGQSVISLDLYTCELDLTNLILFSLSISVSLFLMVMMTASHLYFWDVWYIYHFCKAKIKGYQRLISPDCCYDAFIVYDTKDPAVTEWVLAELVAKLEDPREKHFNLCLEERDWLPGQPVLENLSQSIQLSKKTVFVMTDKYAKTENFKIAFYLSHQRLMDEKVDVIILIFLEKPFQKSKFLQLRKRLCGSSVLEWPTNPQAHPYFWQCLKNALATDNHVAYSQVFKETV
Description: as §1

Compound: CCOCc1nc2c(NC(=O)OCCSSC(C)CCC(=O)NCCC(=O)N(C)CC(=O)N(C)CC(=O)N(C)CC(=O)N(C)CC(=O)N(C)CC(=O)N(C)CC(=O)N(C)CC(=O)N(C)CC(=O)N(C)CC(=O)N(C)CC(=O)N[C@@H](C)C(=O)N[C@H]3CSCc4cc5cc(c4)CSC[C@H](NC(=O)[C@@H](C)NC(=O)[C@H](Cc4cccc6ccccc46)NC(=O)[C@H](CCC(=O)O)NC(=O)[C@H](CC(N)=O)NC(=O)[C@@H](C)NC3=O)C(=O)N[C@@H](CCC(=O)O)C(=O)N[C@@H](CC(=O)O)C(=O)N[C@@H](Cc3ccccc3)C(=O)N[C@@H](Cc3ccc(O)cc3)C(=O)N[C@@H](CC(=O)O)C(=O)N[C@@H](C(C)(C)C)C(=O)N[C@H](C(N)=O)CSC5)nc3ccccc3c2n1CC(C)(C)O (stereo partly drawn) [I-8] ({X1-βAla}-[Sar][Sar][Sar][Sar][Sar][Sar][Sar][Sar][Sar][Sar]AC[dA]NE[1Nal][dA]CEDFYD[Tle]C-NH2; linker 12-18-25 via TBMB)
- hTLR8 activation potency versus naked payload resiquimod (human TLR8): considerably reduced potency or inactivity
- half-life at 2 μM (Plasma stability, mouse): < 2 h
- hTLR7 activation potency versus naked payload resiquimod (human TLR7): considerably reduced potency or inactivity
